Columns and labels:
[1] = system: Ang II induced [Ca^2+]i increase in rat cardiomyocytes; test: Ang II-mediated [Ca2+]i increase in cardiomyocytes; assay type: cell-based; details: pretreatment with 1 mM; sustained but not initial Ca2+
Protocol: Cardiomyocytes were isolated from Sprague-Dawley rats, weighing 210-240 g, by the method with a slight modification [Xie et al., Biochem. Biophys. Res. Commun. (2005)330:1290-8]. Rat hearts were rapidly excised, cannulated, and subjected to retrograde perfusion on a Langendorff apparatus at 37° C. with Ca^2+-free Krebs-Hanseleit (KH) buffer (10 mM HEPES, 118 mM NaCl, 4.7 mM KCl, 1.2 mM MgSO4, 1.2 mM KH2PO4, 25 mM NaHCO3, 10 mM pyruvate, 11 mM glucose, and […], pH 7.3) for 5 min and then with KH buffer containing 5 mM taurine, 0.075% collagenase Type II and 0.08 mg/l protease type XTV for 7-15 min and washed with KH buffer containing 0.2 mM Ca^2+. The left ventricle was removed, chopped into small pieces and further digested in a glass conical flask at 37° C. for 10 min with shaking. The undigested tissues were removed through a […] nylon sheet. […] Isolated myocytes were pelleted by centrifugation at 60×g for 2 min at room temperature and resuspended in a stabilizing buffer (pH, 7.4) containing 20 mM HEPES, 137 mM NaCl, 4.9 mM KCl, 1.2 mM MgSO4, 15 mM glucose, and 10 mM 2,3-butanedione monoxime (BDM). […] Changes in [Ca^2+]i in cardiomyocytes were determined at 488 nm excitation/530 nm emission by air-cooled argon laser system. The emitted fluorescence at 530 nm was collected using a photomultiplier. […]

[2] = system: Ang II induced cADPR production in rat cardiomyocytes; test: Ang II-induced [cADPR]i in cardiomyocytes; assay type: cell-based; details: pretreatment
Protocol: [cADPR]i was measured using a cyclic enzymatic assay as described previously [Graeff et al., Biochem. J. (2002)361:379-84]. Aplysia californica ADPR-cyclase was purified from […] according to the method described [Lee et al., Cell Regul. (1991)2:203-9]. Briefly, MMCs were treated with 0.3 ml of 0.6 M perchloric acid under sonication after Ang II treatment. Precipitates were removed by centrifugation at 20,000×g for 10 min. […] After centrifugation for 10 min at 1500×g, the aqueous layer was collected and neutralized with 20 mM sodium phosphate (pH 8). To remove all contaminating nucleotides, the samples were incubated with the following hydrolytic enzymes overnight at 37° C.: 0.44 unit/ml nucleotide pyrophosphatase, 12.5 units/ml alkaline phosphatase, 0.0625 unit/ml NADase, and 2.5 mM MgCl2 in 20 mM sodium phosphate buffer (pH 8.0). Enzymes were removed by filtration using Centricon-3 filters. […] An increase in the resorufin fluorescence was measured at 544 nm excitation and 590 nm emission using a fluorescence plate reader (Molecular Devices Corp., Spectra-Max GEMINI). […] Measurement of [cADPR]i in cardiomyocytes were determined as described above examples 5. […]

[3] = system: ADPR-cyclase purified partially from rat heart; test: ADPR-cyclase activity assay, heart enzyme; assay type: biochemical; set-up: dose or concentration left out as unconfirmed
Protocol: (§1) FIGS. 1A and 1B show the inhibition of rat kidney ADPR-cyclase that was incubated with […] NGD^+ or e-NAD^+ in the presence of various concentrations of 4,4′-dihydrioxyazobenzene (DHAB) at 37° C. for 10 min and effects of DHAB on human CD38, rat brain, heart, spleen, and kidney ADPR-cyclase. FIGS. 1A and 1B are referred to as FIG. 1 herein.
(§2) Specific ADPR-cyclase activity was determined by measuring cyclic GDP-ribose (cGDPR) or etheno-ADP-ribose (e-cADPR) fluorometrically using NGD^+ or e-NAD^+ as a substrate [Greaff et al., Biochem. J. (2002)361:379-84]. Samples were incubated in the presence […] NGD^+ or e-NAD^+ with and without an appropriate agent in an assay buffer (25 mM HEPES, pH 7.4, 100 mM NaCl, and 0.1% Triton X-100) in a […]. The reaction mixture was incubated at 37° C. for 10 min. The reaction was stopped by adding […] trichloroacetic acid (10%). […] Fluorescence of cGDPR or e-ADPR in the solution was determined at excitation/emission wavelengths of 297/410 nm (HITACHI F-2000 fluorescence spectrophotometer). cADPR-hydrolase activity was determined by incubating cADPR with ADPR-cyclase or CD38 at 37° C. for 20 min. Hydrolysis of cADPR was analyzed by high performance liquid chromatography as described (White et al., 2000). […]

[4] = molecular target: T1, human CD38 (Homo sapiens, UniProt P28907); test: ADPR-cyclase activity assay, CD38; assay type: biochemical; set-up: dose or concentration left out as unconfirmed
T1 sequence (P28907 1-300): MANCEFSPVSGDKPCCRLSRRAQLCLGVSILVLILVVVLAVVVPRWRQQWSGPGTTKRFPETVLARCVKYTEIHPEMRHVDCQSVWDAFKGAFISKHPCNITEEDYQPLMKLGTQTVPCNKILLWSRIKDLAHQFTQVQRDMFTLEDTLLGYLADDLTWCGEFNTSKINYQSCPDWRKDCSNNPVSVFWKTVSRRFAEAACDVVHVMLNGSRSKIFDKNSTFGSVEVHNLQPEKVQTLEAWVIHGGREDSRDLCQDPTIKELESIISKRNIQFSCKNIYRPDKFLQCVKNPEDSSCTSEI
Protocol: as §1, §2

Row | sensitivity of enzyme activity to compound [3] | sensitivity of enzyme activity to compound [4] | SMILES | effect on Ang II-evoked sustained Ca2+ increase [1] | effect on Ang II-mediated [cADPR]i [2]
1 |  |  | Oc1ccccc1/N=N/c1ccccc1O [2,2′-DHAB, 2,2′-Dihydroxyazobenzene] | significantly blocked | inhibited
2 | insensitive | insensitive | Oc1ccc(N=Nc2ccc(O)cc2)cc1 [4,4′-DHAB, 4,4′-Dihydroxyazobenzene] |  | 
